The experiment concerns the target T1, TβR (GST-ALK5) (Homo sapiens, UniProt P36897).
T1 sequence (P36897 34-503): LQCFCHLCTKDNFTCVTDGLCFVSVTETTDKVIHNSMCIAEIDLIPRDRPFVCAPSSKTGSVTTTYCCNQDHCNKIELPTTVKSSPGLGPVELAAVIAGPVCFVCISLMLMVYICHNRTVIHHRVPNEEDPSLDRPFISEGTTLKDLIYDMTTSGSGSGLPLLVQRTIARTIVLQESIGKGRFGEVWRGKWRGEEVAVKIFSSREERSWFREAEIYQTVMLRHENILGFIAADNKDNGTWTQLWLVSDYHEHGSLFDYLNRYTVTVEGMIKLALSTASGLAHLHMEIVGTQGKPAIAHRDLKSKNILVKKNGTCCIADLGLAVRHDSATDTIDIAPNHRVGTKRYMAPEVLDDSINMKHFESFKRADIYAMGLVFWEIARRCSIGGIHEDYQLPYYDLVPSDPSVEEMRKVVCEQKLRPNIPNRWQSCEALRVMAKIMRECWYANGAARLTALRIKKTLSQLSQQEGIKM
Nature of the experiment: In-vitro (enzyme) flashplate kinase assay, TβR activity. It is filed as biochemical. Conditions: GST-ALK5, GST-SMAD2 substrate, 3 mM ATP. Here is the method: In-Vitro (Enzyme) Assay for Determination of the Efficacy of Inhibitors of the Inhibition of TGF-Beta-Mediated Effects
The kinase assay was carried out as 384-well flashplate assay. […] The reaction was stopped using 25 μl of 200 mM EDTA solution, filtered with suction at room temperature after 30 min, and the wells were washed with 3 times 100 μl of 0.9% NaCl solution. Radioactivity was measured in the TopCount. The IC50 values were calculated using RS1. Above and below, all temperatures were indicated in ° C.

One may read the IC50 as the concentration needed to halve the response being measured. Lower therefore signals greater potency in that assay.

Compound `Fc1ccc(Cl)cc1-c1cc(Nc2ccncn2)c2ccccc2n1` [compound 003] had an IC50 of less than 500 nM.

In turn, `Fc1ccc(Cl)cc1-c1cc(Cc2ccncc2)c2ccccc2n1` [compound 004] had an IC50 greater than 10000 nM.

Regarding `Fc1ccc(Cl)cc1-c1cc(Nc2ccccn2)c2ccccc2n1` [compound 005], the IC50 was greater than 10000 nM.

Compound `Fc1ccc(Cl)cc1-c1cc(Oc2ccncc2)c2ccccc2n1` [compound 006] gave an IC50 greater than 10000 nM.

In turn, `CN(c1ccncc1)c1cc(-c2cc(Cl)ccc2F)nc2ccccc12` [compound 007] gave an IC50 of 500 to 1000 nM.

Compound `Fc1ccc(Cl)cc1-c1cc(Nc2ccncc2C(F)(F)F)c2ccccc2n1` [compound 008] gave an IC50 of less than 500 nM.

The compound `O=C(Nc1cc(-c2cc(Cl)ccc2F)nc2ccccc12)c1ccncc1` [compound 009] registered an IC50 of 1000 to 10000 nM.

In turn, `O=C(Nc1cc(-c2cc(Cl)ccc2F)nc2ccccc12)c1cccnc1` [compound 010] displayed an IC50 of 1000 to 10000 nM.

As to `Fc1ccc(Cl)cc1-c1cc(Sc2ccncc2)c2ccccc2n1` [compound 011], the IC50 was 1000 to 10000 nM.

On to `Fc1ccc(Cl)cc1-c1cc(Nc2cccnc2)c2ccccc2n1` [compound 012], for which the concentration for half-maximal inhibition (IC50) was greater than 10000 nM.

As to `Fc1ccc(Cl)cc1-c1cc(Nc2ccnc3ccccc23)c2ccccc2n1` [compound 013], the IC50 was less than 500 nM.

The compound `Fc1ccc(Cl)cc1-c1cc(-n2ccc3cnccc32)c2ccccc2n1` [compound 014] had a concentration for half-maximal inhibition (IC50) of less than 500 nM.

The compound `CN1CCN(c2nccc(Nc3cc(-c4cc(Cl)ccc4F)nc4ccccc34)n2)CC1` [compound 015] displayed an IC50 greater than 10000 nM.

`Fc1ccc(Cl)cc1-c1cc(Nc2cn[nH]c2)c2ccccc2n1` [compound 016] had a half-maximal inhibitory concentration (IC50) of less than 500 nM.

`Fc1ccc(Cl)cc1-c1cc(N(c2ccncn2)c2cc(-c3cc(Cl)ccc3F)nc3ccccc23)c2ccccc2n1` [compound 017]: the IC50 was in the range of 1000 to 10000 nM.

As to `O=[N+]([O-])c1cnccc1Nc1cc(-c2cc(Cl)ccc2F)nc2ccccc12` [compound 018, [2-(5-Chloro-2-fluoro-phenyl)-quinolin-4-yl]-(3-nitro-pyridin-4-yl)-amine], the IC50 was in the range of 1000 to 10000 nM.

As to `Nc1cnccc1Nc1cc(-c2cc(Cl)ccc2F)nc2ccccc12` [compound 019], the IC50 was less than 500 nM.

Take `Fc1ccc(Cl)cc1-c1cc(Nc2ccnnc2)c2ccccc2n1` [compound 020]: the IC50 is less than 500 nM.

`Fc1ccc(Cl)cc1-c1cc(Nc2ccnc(Cl)c2)c2ccccc2n1` [compound 021] showed a half-inhibitory concentration (IC50) of 1000 to 10000 nM.

Compound `Fc1ccc(Cl)cc1-c1cc(Nc2ccnc(N(c3ccnc(Cl)c3)c3cc(-c4cc(Cl)ccc4F)nc4ccccc34)c2)c2ccccc2n1` [compound 022] registered an IC50 of 1000 to 10000 nM.

On to `O=c1[nH]c2cnccc2n1-c1cc(-c2cc(Cl)ccc2F)nc2ccccc12` [compound 023, N*4*-[2-(5-Chloro-2-fluoro-phenyl)-quinolin-4-yl]-pyridine-3,4-diamine urea], for which the 50% inhibitory concentration (IC50) was less than 500 nM.

The compound `Fc1ccc(Cl)cc1-c1cc(Nc2ccnc3cccnc23)c2ccccc2n1` [compound 024] displayed an IC50 of less than 500 nM.

Turning to `O=S1(=O)Nc2cnccc2N1c1cc(-c2cc(Cl)ccc2F)nc2ccccc12` [compound 025], the IC50 is less than 500 nM.

Turning to `Cc1nc2cnccc2n1-c1cc(-c2cc(Cl)ccc2F)nc2ccccc12` [compound 026], the IC50 lay within 500 to 1000 nM.

Compound `CN1CCC(C(=O)Nc2cnccc2Nc2cc(-c3cc(Cl)ccc3F)nc3ccccc23)CC1` [compound 027] showed an IC50 of less than 500 nM.

`CN1CCC(c2nc3cnccc3n2-c2cc(-c3cc(Cl)ccc3F)nc3ccccc23)CC1` [compound 028] displayed an IC50 greater than 10000 nM.

Regarding `Nc1ccncc1Nc1cc(-c2cc(Cl)ccc2F)nc2ccccc12` [compound 029], the 50% inhibitory concentration (IC50) is greater than 10000 nM.

In the case of `O=S(=O)(CC(F)(F)F)Nc1cnccc1Nc1cc(-c2cc(Cl)ccc2F)nc2ccccc12` [compound 030], the IC50 was 1000 to 10000 nM.

Compound `CN(C)C(=O)Nc1cnccc1Nc1cc(-c2cc(Cl)ccc2F)nc2ccccc12` [compound 031] displayed an IC50 of less than 500 nM.

In turn, `Fc1ccc(Cl)cc1-c1cc(Nc2ccnc3[nH]ccc23)c2ccccc2n1` [compound 032] yielded an IC50 greater than 10000 nM.

Take `O=C(Nc1cnccc1Nc1cc(-c2cc(Cl)ccc2F)nc2ccccc12)C(F)(F)F` [compound 033]: the IC50 is 1000 to 10000 nM.

The compound `O=c1[nH]c2cnccc2n1-c1cc(-c2ccccc2F)nc2ccccc12` [compound 034] had an IC50 of 500 to 1000 nM.

`Nc1ccnc(Nc2cc(-c3cc(Cl)ccc3F)nc3ccccc23)c1` [compound 035] came in with an IC50 greater than 10000 nM.

Consider `Fc1ccc(Cl)cc1-c1cc(Nc2cc(Nc3cc(-c4cc(Cl)ccc4F)nc4ccccc34)ncn2)c2ccccc2n1` [compound 036], for which the IC50 is greater than 10000 nM.

Compound `Nc1cc(N(c2cc(-c3cc(Cl)ccc3F)nc3ccccc23)c2cc(-c3cc(Cl)ccc3F)nc3ccccc23)ncn1` [compound 037] came in with an IC50 of 1000 to 10000 nM.

For the compound `Nc1cc(Nc2cc(-c3cc(Cl)ccc3F)nc3ccccc23)ncn1` [compound 038], the IC50 is less than 500 nM.

The compound `CCOC(=O)n1c(=O)n(-c2cc(-c3cc(Cl)ccc3F)nc3ccccc23)c2ccncc21` [compound 039] registered an IC50 of less than 500 nM.

In turn, `CS(=O)(=O)Nc1cnccc1N(c1cc(-c2cc(Cl)ccc2F)nc2ccccc12)S(C)(=O)=O` [compound 040] returned an IC50 of 1000 to 10000 nM.

`O=S(=O)(O)Nc1cnccc1Nc1cc(-c2cc(Cl)ccc2F)nc2ccccc12` [compound 041] showed an IC50 of 1000 to 10000 nM.

In turn, `COc1ccc(-c2cc(Nc3ccncc3)c3ccccc3n2)cc1` [compound 042] had an IC50 of 500 to 1000 nM.

The compound `Fc1ccc(F)c(-c2cc(Nc3ccncc3)c3ccccc3n2)c1` [compound 043] came in with an IC50 of less than 500 nM.

The compound `Fc1ccccc1-c1cc(Nc2ccncc2)c2ccccc2n1` [compound 044] gave an IC50 of less than 500 nM.

`Fc1ccccc1-c1cc(Nc2ccncn2)c2ccccc2n1` [compound 045] returned an IC50 of less than 500 nM.

`Fc1ccccc1-c1cc(Nc2ccncc2C(F)(F)F)c2ccccc2n1` [compound 046] returned an IC50 of less than 500 nM.

Turning to `c1ccc2c(Nc3ccncc3)cc(C3CCCCC3)nc2c1` [compound 047], the IC50 fell in the range of 1000 to 10000 nM.

For `Clc1ccc(Cl)c(-c2cc(Nc3ccncc3)c3ccccc3n2)c1` [compound 048], the IC50 is less than 500 nM.

The compound `COc1cccc(-c2cc(Nc3ccncc3)c3ccccc3n2)c1` [compound 049] came in with a 50% inhibitory concentration (IC50) of 500 to 1000 nM.

As to `Clc1ccccc1-c1cc(Nc2ccncc2)c2ccccc2n1` [compound 050], the IC50 is less than 500 nM.

In turn, `FC(F)(F)c1cccc(-c2cc(Nc3ccncc3)c3ccccc3n2)c1` [compound 051] displayed a concentration for half-maximal inhibition (IC50) of less than 500 nM.

Consider `COc1ccccc1-c1cc(Nc2ccncc2)c2ccccc2n1` [compound 052], for which the IC50 lay in the range of 1000 to 10000 nM.

`O=c1[nH]c2cnccc2n1-c1c(O)c(-c2cc(Cl)ccc2F)nc2ccccc12` [compound 053] returned an IC50 of 1000 to 10000 nM.

`CN(C)CC(=O)Nc1cnccc1Nc1cc(-c2cc(Cl)ccc2F)nc2ccccc12` [compound 054] returned an IC50 of less than 500 nM.

`N#Cc1cccc(-c2cc(Nc3ccncc3)c3ccccc3n2)c1` [compound 055] gave an IC50 of 1000 to 10000 nM.

Compound `Fc1ccc(C(F)(F)F)cc1-c1cc(Nc2ccncc2)c2ccccc2n1` [compound 056] showed an IC50 of less than 500 nM.

As to `c1ccc(-c2cc(Nc3ccncc3)c3ccccc3n2)nc1` [compound 057], the IC50 was less than 500 nM.

These data come from patent publication US8987301B2, “Heteroarylaminoquinolines as TGF-beta receptor kinase inhibitors” (Merck Patent GmbH, priority 2009, dated 2015).
